From ChEMBL document CHEMBL5096238 (J Med Chem, 2022)

How the values were obtained:
[1] = MRT (0 to t) in Sprague-Dawley rat at 2 mg/kg, iv measured for 24 hrs by LC-MS/MS analysis; assay type: ADME, organism-based; conditions: in vivo
[2] = Apparent permeability across apical to basolateral side in human Caco-2 cells at 10 uM incubated for 120 mins by LC-MS/MS analysis; assay type: ADME, cell-based
BaF3 [3] = assay: Induction of apoptosis in mouse BaF3 cells harboring wild type Tpr-Met fusion protein assessed as viable cells at 20 nM incubated for 48 hrs by Annexin V/7-AAD staining based flow cytometry analysis (reference value: 89.76%); assay type: functional; conditions: read-out: Activity
[4] = molecular target: T1, Hepatocyte growth factor receptor (Homo sapiens, UniProt P08581); conditions: Hs746T, dose 1.1-30 nM, time 12.0 hrs
T1 sequence (P08581 whole entry): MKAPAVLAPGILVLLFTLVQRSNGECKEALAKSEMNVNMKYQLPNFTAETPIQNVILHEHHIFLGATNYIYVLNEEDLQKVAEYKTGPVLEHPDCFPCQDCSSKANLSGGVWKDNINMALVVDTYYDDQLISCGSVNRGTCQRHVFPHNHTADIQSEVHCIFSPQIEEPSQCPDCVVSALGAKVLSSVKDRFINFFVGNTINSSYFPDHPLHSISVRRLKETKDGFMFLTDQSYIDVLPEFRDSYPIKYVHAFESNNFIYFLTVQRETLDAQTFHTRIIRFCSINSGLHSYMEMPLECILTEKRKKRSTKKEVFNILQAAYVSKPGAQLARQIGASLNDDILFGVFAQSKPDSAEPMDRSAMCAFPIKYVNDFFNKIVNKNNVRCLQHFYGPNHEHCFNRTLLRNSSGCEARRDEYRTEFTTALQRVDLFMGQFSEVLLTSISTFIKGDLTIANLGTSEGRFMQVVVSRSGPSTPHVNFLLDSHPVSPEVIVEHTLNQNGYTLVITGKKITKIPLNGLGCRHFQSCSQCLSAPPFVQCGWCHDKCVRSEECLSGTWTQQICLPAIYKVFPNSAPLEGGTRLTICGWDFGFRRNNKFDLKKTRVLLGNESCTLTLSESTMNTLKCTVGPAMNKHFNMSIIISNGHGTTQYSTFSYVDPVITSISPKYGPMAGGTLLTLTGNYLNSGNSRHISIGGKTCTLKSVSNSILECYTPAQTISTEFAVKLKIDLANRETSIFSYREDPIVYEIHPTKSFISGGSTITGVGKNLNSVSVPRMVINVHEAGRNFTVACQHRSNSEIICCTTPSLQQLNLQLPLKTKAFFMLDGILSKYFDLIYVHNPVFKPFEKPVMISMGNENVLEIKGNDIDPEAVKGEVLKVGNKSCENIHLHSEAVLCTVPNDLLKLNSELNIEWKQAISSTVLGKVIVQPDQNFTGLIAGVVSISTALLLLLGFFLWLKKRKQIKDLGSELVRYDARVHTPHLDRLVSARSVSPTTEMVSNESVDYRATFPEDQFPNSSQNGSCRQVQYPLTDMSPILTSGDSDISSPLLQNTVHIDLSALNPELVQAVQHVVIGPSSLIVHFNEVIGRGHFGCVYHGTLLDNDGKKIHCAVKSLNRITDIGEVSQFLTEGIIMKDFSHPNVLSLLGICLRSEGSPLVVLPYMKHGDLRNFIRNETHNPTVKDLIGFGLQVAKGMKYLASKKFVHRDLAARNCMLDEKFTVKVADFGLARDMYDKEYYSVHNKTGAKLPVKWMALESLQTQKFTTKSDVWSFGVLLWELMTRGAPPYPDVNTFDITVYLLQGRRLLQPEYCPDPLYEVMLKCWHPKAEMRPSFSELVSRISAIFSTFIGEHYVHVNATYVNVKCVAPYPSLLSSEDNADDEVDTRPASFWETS

[5] = AUC(0 to t) in Sprague-Dawley rat at 2 mg/kg, iv measured for 24 hrs by LC-MS/MS analysis; assay type: ADME, organism-based; set-up: time 24 hrs, dose 2 mg/kg, route iv; conditions: in vivo
Cytochrome P450 2C9 = Cytochrome P450 2C9 (Homo sapiens, UniProt P11712); assay: Inhibition of CYP2C9 (unknown origin) in microsomes preincubated for 5 mins followed by NADPH addition by LC-MS/MS analysis; assay type: ADME, Microsome
Chain of Cytochrome P450 2C9 (P11712 whole entry): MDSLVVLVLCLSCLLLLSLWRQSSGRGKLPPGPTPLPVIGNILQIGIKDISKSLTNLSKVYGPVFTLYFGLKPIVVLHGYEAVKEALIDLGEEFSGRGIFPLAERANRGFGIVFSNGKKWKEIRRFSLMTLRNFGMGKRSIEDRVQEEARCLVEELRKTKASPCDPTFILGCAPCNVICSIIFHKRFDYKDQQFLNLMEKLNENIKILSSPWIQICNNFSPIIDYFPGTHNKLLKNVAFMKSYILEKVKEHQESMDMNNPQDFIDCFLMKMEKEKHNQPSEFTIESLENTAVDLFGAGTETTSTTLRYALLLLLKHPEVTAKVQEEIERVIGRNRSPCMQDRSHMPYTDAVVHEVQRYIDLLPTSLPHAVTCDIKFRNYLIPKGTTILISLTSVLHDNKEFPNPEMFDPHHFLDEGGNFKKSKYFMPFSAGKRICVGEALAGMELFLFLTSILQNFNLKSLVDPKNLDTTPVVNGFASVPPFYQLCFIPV

[6] = Half life in Sprague-Dawley rat at 2 mg/kg, iv measured for 24 hrs by LC-MS/MS analysis; assay type: ADME, organism-based; conditions: in vivo
[7] = MRT (0 to t) in Sprague-Dawley rat at 10 mg/kg, ip measured for 24 hrs by LC-MS/MS analysis; assay type: ADME, organism-based; conditions: in vivo
[8] = Oral bioavailability in Sprague-Dawley rat at 10 mg/kg measured for 24 hrs by LC-MS/MS analysis; assay type: ADME, organism-based; conditions: in vivo
Cytochrome P450 3A4 = Cytochrome P450 3A4 (Homo sapiens, UniProt P08684); assay: Inhibition of CYP3A4 (unknown origin) in microsomes sing testosterone as a substrate preincubated for 5 mins followed by NADPH addition by LC-MS/MS analysis; assay type: ADME, Microsome
Chain of Cytochrome P450 3A4 (P08684 whole entry): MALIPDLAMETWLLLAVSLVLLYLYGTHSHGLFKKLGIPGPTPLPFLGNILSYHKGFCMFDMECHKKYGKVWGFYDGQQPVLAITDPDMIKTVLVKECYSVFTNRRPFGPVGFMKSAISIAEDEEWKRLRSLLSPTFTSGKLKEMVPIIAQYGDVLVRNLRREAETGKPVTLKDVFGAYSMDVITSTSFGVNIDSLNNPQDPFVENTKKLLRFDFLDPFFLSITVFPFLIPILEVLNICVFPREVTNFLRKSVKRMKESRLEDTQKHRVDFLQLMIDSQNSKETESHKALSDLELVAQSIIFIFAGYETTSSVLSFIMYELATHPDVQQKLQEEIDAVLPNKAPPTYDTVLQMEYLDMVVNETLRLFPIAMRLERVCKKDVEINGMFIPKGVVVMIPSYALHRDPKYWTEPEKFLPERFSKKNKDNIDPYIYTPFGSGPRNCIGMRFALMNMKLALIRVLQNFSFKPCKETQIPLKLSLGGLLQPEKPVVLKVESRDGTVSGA

[9] = AUC(0 to t) in Sprague-Dawley rat at 10 mg/kg, po measured for 24 hrs by LC-MS/MS analysis; assay type: ADME, organism-based; set-up: time 24 hrs, dose 10 mg/kg, route po; conditions: in vivo
[10] = AUC(0 to t) in Sprague-Dawley rat at 10 mg/kg, ip measured for 24 hrs by LC-MS/MS analysis; assay type: ADME, organism-based; set-up: dose 10 mg/kg, time 24 hrs, route ip; conditions: in vivo
[11] = Bioavailability in Sprague-Dawley rat at 10 mg/kg, ip measured for 24 hrs by LC-MS/MS analysis; assay type: ADME, organism-based; conditions: in vivo
[12] = Half life in Sprague-Dawley rat at 10 mg/kg, ip measured for 24 hrs by LC-MS/MS analysis; assay type: ADME, organism-based; conditions: in vivo
[13] = molecular target: Voltage-gated inwardly rectifying potassium channel KCNH2 (Homo sapiens, UniProt Q12809); assay: Inhibition of hERG expressed in HEK293 cells by whole-cell patch clamp technique; assay type: toxicity, cell-based
Chain of Voltage-gated inwardly rectifying potassium channel KCNH2 (Q12809 whole entry): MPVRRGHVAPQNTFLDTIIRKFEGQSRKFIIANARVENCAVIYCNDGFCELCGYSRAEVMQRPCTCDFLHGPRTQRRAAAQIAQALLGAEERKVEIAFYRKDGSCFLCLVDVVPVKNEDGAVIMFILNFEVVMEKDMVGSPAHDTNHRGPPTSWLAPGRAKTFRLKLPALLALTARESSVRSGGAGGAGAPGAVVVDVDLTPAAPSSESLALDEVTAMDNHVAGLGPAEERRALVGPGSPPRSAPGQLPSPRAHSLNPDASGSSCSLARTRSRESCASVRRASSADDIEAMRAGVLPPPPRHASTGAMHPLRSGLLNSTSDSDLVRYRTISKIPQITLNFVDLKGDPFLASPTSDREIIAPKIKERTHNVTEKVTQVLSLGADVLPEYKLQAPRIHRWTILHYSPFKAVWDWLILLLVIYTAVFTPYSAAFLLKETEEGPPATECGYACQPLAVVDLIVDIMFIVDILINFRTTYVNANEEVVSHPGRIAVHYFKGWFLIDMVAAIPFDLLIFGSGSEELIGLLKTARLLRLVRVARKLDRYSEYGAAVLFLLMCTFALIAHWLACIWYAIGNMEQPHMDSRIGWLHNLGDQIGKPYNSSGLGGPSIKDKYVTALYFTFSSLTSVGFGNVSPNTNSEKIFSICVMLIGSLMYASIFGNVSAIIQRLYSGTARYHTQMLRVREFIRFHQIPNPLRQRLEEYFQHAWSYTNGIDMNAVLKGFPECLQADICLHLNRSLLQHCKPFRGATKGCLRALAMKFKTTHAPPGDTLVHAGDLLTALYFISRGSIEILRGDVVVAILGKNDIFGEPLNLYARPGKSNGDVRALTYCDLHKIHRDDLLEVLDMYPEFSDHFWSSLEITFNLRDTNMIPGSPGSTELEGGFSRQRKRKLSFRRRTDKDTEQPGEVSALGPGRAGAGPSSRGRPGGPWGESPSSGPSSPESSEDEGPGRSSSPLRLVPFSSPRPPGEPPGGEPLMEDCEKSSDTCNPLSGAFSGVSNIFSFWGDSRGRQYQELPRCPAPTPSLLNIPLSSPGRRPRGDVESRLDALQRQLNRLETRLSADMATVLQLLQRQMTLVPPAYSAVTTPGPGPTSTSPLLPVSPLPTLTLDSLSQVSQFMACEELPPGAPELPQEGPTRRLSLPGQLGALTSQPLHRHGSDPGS

[14] = MRT (0 to t) in Sprague-Dawley rat at 10 mg/kg, po measured for 24 hrs by LC-MS/MS analysis; assay type: ADME, organism-based; conditions: in vivo
BaF3 [15] = assay: Induction of apoptosis in mouse BaF3 cells harboring wild type Tpr-Met fusion protein assessed as viable cells at 40 nM incubated for 48 hrs by Annexin V/7-AAD staining based flow cytometry analysis (reference value: 89.76%); assay type: functional; conditions: read-out: Activity
[16] = Cmax in Sprague-Dawley rat at 10 mg/kg, ip measured for 24 hrs by LC-MS/MS analysis; assay type: ADME, organism-based; set-up: time 24 hrs, dose 10 mg/kg, route ip; conditions: in vivo
BaF3 [17] = assay: Induction of apoptosis in mouse BaF3 cells harboring wild type Tpr-Met fusion protein assessed as viable cells at 10 nM incubated for 48 hrs by Annexin V/7-AAD staining based flow cytometry analysis (reference value: 89.76%); assay type: functional; conditions: read-out: Activity
[18] = Tmax in Sprague-Dawley rat at 10 mg/kg, ip measured for 24 hrs by LC-MS/MS analysis; assay type: ADME, organism-based; conditions: in vivo
[19] = Tmax in Sprague-Dawley rat at 2 mg/kg, iv measured for 24 hrs by LC-MS/MS analysis; assay type: ADME, organism-based; conditions: in vivo
[20] = molecular target: T1, Hepatocyte growth factor receptor; assay: Inhibition of N-terminal His/SUMO tagged wild type human c-Met (1038 to 1346 residues) transfected in Escherichia coli using Tyr06 peptide as substrate incubated for 1 hr in presence of ATP by FRET-based Z'-Lyte assay
[21] = Apparent volume of distribution in Sprague-Dawley rat at 2 mg/kg, iv measured for 24 hrs by LC-MS/MS analysis; assay type: ADME, organism-based; conditions: in vivo, read-out: Vz
[22] = Cmax in Sprague-Dawley rat at 2 mg/kg, iv measured for 24 hrs by LC-MS/MS analysis; assay type: ADME, organism-based; set-up: dose 2 mg/kg, time 24 hrs, route iv; conditions: in vivo
[23] = Half life in Sprague-Dawley rat at 10 mg/kg, po measured for 24 hrs by LC-MS/MS analysis; assay type: ADME, organism-based; conditions: in vivo
[24] = Cmax in Sprague-Dawley rat at 10 mg/kg, po measured for 24 hrs by LC-MS/MS analysis; assay type: ADME, organism-based; set-up: dose 10 mg/kg, time 24 hrs, route po; conditions: in vivo
[25] = Clearance in Sprague-Dawley rat at 2 mg/kg, iv measured for 24 hrs by LC-MS/MS analysis; assay type: ADME, organism-based; conditions: in vivo
Cytochrome P450 2D6 = Cytochrome P450 2D6 (Homo sapiens, UniProt P10635); assay: Inhibition of CYP2D6 (unknown origin) in microsomes preincubated for 5 mins followed by NADPH addition by LC-MS/MS analysis; assay type: ADME, Microsome
Chain of Cytochrome P450 2D6 (P10635 whole entry): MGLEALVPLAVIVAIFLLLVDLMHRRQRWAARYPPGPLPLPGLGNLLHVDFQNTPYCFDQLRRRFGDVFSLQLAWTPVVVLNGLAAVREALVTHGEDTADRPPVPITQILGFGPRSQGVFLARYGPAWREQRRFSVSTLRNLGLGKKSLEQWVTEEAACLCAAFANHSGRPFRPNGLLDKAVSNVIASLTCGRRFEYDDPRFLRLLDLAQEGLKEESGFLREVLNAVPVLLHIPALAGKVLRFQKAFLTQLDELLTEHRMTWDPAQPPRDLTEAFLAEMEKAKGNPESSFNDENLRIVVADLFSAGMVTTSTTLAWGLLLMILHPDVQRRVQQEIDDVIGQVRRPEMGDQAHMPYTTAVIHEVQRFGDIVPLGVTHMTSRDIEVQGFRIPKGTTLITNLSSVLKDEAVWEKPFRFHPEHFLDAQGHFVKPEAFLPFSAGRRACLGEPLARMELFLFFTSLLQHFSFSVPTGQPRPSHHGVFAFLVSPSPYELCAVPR

[26] = molecular target: T2, Tyrosine-protein kinase receptor UFO (Homo sapiens, UniProt P30530); assay: Inhibition of AXL (unknown origin)
T2 sequence (P30530 whole entry): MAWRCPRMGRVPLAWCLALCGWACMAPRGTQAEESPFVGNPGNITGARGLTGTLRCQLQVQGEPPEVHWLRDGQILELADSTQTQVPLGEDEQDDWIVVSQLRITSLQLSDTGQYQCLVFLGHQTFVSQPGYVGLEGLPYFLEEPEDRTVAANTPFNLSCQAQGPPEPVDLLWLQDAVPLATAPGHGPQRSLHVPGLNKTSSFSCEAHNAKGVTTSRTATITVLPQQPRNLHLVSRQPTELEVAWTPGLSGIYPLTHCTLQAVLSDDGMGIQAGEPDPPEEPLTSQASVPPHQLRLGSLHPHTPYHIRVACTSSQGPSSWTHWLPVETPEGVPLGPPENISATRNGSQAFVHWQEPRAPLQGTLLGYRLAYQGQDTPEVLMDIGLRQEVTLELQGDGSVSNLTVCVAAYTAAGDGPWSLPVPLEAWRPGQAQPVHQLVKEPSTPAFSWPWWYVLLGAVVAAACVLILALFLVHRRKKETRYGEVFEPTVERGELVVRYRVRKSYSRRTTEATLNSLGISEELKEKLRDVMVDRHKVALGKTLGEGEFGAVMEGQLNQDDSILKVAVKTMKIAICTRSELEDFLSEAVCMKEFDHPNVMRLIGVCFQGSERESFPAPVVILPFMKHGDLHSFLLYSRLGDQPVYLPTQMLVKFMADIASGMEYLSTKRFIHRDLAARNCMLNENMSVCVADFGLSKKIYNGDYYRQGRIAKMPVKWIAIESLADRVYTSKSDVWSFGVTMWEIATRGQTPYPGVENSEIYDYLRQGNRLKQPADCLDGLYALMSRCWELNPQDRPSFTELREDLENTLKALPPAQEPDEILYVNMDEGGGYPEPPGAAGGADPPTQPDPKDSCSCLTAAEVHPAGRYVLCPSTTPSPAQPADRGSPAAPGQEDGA

[27] = Tmax in Sprague-Dawley rat at 10 mg/kg, po measured for 24 hrs by LC-MS/MS analysis; assay type: ADME, organism-based; conditions: in vivo
[28] = molecular target: Hepatocyte growth factor receptor (Mus musculus) (UniProt P16056); conditions: BaF3, dose 1.1-30 nM, time 12.0 hrs

- MRT last at 24 h [1]: 21.6 min
- Papp A→B at 2 h, 10 µM [2]: 0.53 ×10⁻⁶ cm/s
- inhibition [4]: Dde
- AUC(0-t) at 24 h [5]: 484 ng·h/mL
- IC50 (Cytochrome P450 2C9): > 10 µM
- half-life [6]: 34.2 min
- MRT last at 24 h [7]: 204 min
- bioavailability [8]: 2.02%
- IC50 (Cytochrome P450 3A4): > 10 µM
- AUC(0-t) at 24 h [9]: 48.9 ng·h/mL
- AUC(0-t) at 24 h [10]: 820 ng·h/mL
- bioavailability [11]: 33.9%
- half-life [12]: 278 min
- MRT last at 24 h [14]: 103 min
- Cmax [16]: 282 ng/mL
- Tmax [18]: 15 min
- Tmax [19]: 4.8 min
- IC50 [20]: 0.0029 µM
- Vd [21]: 3.47 L/kg
- Cmax [22]: 1070 ng/mL
- half-life [23]: 149 min
- Cmax [24]: 61 ng/mL
- clearance [25]: 70.1 mL/min/kg
- IC50 (Cytochrome P450 2D6): > 10 µM
- IC50 [26]: 0.401 µM
- Tmax [27]: 15 min
- inhibition [28]: Dde
Structure (SMILES): O=C1NCCCCn2cc(cn2)-c2cnc3ccc(cc3c2)CCn2nc(ccc2=O)-c2ccc1c(C(F)(F)F)c2
- viability at 0.02 µM (BaF3 [3]): 75.4%
- IC50 [13]: 27.7 µM
- viability at 0.04 µM (BaF3 [15]): 42.9%
- viability at 0.01 µM (BaF3 [17]): 87%
